Measured values taken from patent US4591605A, “Method and ingestible formulation for inhibiting the secretion of stomach acid” (Research Foundation of State University of New York, priority 1982, dated 1986).

Legend:
[1] = system: gastric (H^+ +K^+)-ATPase; details: vesicles preequilibrated in 150 mM KCl with 0.5 mM compound for 48 hours
Experimental: The gastric microsomal membranes were harvested. All procedures were carried out at 0°-4° C. Briefly, the fundic mucosa from the pig was desquamated and scraped to collect the oxyntic cell-enriched fractions. The mucosal scraping was homogenized gently in a medium consisting of 250 mM sucrose, 0.2 mM EDTA, and 0.2 mM Pipes buffer (pH 6.8) using a loose pestle homogenizer. The homogenate was centrifuged at 8000 g for 5 min. The process was repeated three times. All the supernatants were pooled together and layered over 40 ml of 37% sucrose in 84-ml capacity screw cap tubes and centrifuged at 100,000 g for 5 hours. The microsomal membrane bands appeared at the interface of soluble supernatant and 37% sucrose. The microsomal vesicle bands were collected, diluted with homogenizing medium, and centrifuged at 100,000 g for 90 min. The pellet was suspended in the homogenizing medium with a protein concentration of 0.5 mg/ml. The collected cellular vesicules were inverted, i.e., the interior of the vesicules originally faced the lumen side of the stomach. Vesicular accumulation of H^+ was measured at room temperature. The method uses the change in fluorescence intensity (quenching) of 9-amino-acridine or acridine orange which is proportional to the amount of dye taken up by the microsomes. The amount of dye taken up is a sensitive measure of intravesicular H^+ concentration. […]

[2] = system: histamine stimulated bullfrog gastric mucosa; experiment: H+ secretion by histamine-stimulated bullfrog gastric mucosa (chambered mucosa, titration); design: species or system bullfrogs (Rana catesbeiana); details: for activity at 500 µM: Aquarana catesbeiana, 0.5 mM drug in the secretory solution, histamine stimulated steady-state H+ secretory rate, mean ±SEM, read-out: Rate of H^+ transport (% of control); for reversibility of the inhibition of H^+ transport by elevation of secretory K^+: K+ substituted for Na+ of the secretory solution; for inhibitory effect relative to the other polyamine: spermine versus spermidine
Experimental: This experiment was carried out with gastric mucosa from bullfrogs (Rana catesbeiana). […] The area of the mounted mucosae was 1.5 cm^2. The bathing solutions were bubbled continuously with […] -5% CO2.
The normal nutrient soliution had the following composition (in mM): NaCl 87, KCl 4, CaCl2 2, MgCl2 1, KH2 PO4 1, NaHCO3 18, and glucose 11.
All experiments were conducted under open-circuit conditions at room temperature. The mucosal solutions were collected at 15-minute intervals and placed in thoroughly washed plastic vials. The K^+ content of the secretory medium was determined by atomic absorption spectrophotometer (model 360 Perkin-Elmer). The H^+ secretion was quantitated by titration using 1 mM NaOH to pH 6.5 while gassing with 100% N2.
The H^+ secretory rates are the steady-stage values before (None) and after addition of the drugs attained by the histamine stimulated mucosa. Values are mean ±SEM.

Compound	H^+ uptake by the vesicles [1]	inhibition of H^+ transport, added into the secretory solution ([2]; 0.25 mM in secretory solution (lumen side), inhibition increased with concentration)	rate of H^+ transport in K+-depleted mucosa ([2]; 1 mM together with 10 mM K+ in the secretory solution, within 30 min)	reversibility of inhibition by elevation of secretory K^+ in K+-depleted mucosa ([2]; 1 mM with 10 mM K+ in secretory solution, then K+ elevated)	effect on H^+ transport, added to nutrient solution ([2]; 0.5 and 1.0 mM, from the nutrient side)	activity at 500 µM [2] [%]	reversibility of the inhibition of H^+ transport by elevation of secretory K^+ [2]	inhibitory effect relative to the other polyamine [2]	inhibition of gastric H^+ transport, added into the nutrient solution ([2]; nutrient solution, concentration not given)	inhibition of gastric H^+ transport, added into the secretory solution ([2]; secretory solution, concentration not given)
NCCCNCCCCNCCCN [Spermine, spermine]	totally obliterated	remarkable inhibition of H^+ transport	near zero	could be reversed	did not have any appreciable effect	28 ± 6	completely reversible	more potent than spermidine	–	–
NCCCCN [Putrescine, putrescine, reference compound]	–	–	–	–	–	95 ± 10	–	–	–	–
NCCCCNCCCN [Spermidine, spermidine]	–	–	–	–	–	55 ± 2	could also be reversed	much lower than spermine	not into the nutrient solution	inhibits gastric H^+ transport
